Assay results from EP1377579B1 (Aventis Pharmaceuticals Inc., priority 2000, dated 2002).
pIC50: −log10 of the molar value. Where a name gives a salt, the structure may show the parent alone.

Columns and labels:
cdk1/cyclin B = cdk1/cyclin B (Homo sapiens, UniProt P06493); test: Cyclin-dependent kinase assay, cdk1/cyclin B; conditions: CDK1 IC50, nM, Histone H1, 10 µM ATP
Jurkat = test: In vitro proliferation assay (MTT), Jurkat; assay type: cell-based; conditions: Homo sapiens, MTT assay, value (SD, n) where given, read-out: Jurkat Leuk. (IC50 µM)
Method: (§1) The proliferation of tumor cells can be measured using a tetrazolium salt-based assay known as the MTT (3-[4,5-Dimethylthiazol-2-yl]-2,5-diphenyltetrazolium bromide) assay. The proliferation test is performed essentially as described by Carmichael et al., Cancer Res. 47: 936-942, 1987. For the assay, the cell lines are plated onto 96 well plates at 1000 to 2500 cells/well (depending on the properties of the individual cell lines), left to attach and recover overnight. […] After 3 days, the cells are incubated with MTT dye (3-[4,5-Dimethylthiazol-2-yl]-2,5-diphenyltetrazolium bromide, Sigma # M5655, 10 mg/ml in Hank's Buffered Saline) to estimate the amount of live cells remaining vs. concentration for the test compounds. Specifically, MTT solution is added to a final concentration of […] and the plates incubated at 37 C for 2 to 4 hr. The MTT and culture medium is then removed from the cultures and 200 µl of DMSO is added to solubilize the dye from the cell layer. The absorbance at 570 nm is determined for each culture using a Spectramax plate reader (Molecular Devices).
(§2) IC50s were determined from the raw data from either the MTT or SRB assays.
(§3) All of the cell lines were obtained from American Type Tissue Collection, with the ATCC accession number in parentheticals. MCF-7 and MDA-MB-231 cells were grown in improved minimum essential medium (Biofluids) without phenol red, supplemented with 5 % fetal bovine serum, 0.01 mg/ml gentamicin and 3 mM L-glutamine. All of the other cell lines were grown in RPMI 1640 medium (Life Technologies) supplemented with 5 % fetal bovine serum, 0.01 mg/ml gentamicin and 3 mM L-glutamine TABLE 3

cdk2/cyclin E = cdk2/cyclin E (Homo sapiens, UniProt P24941); test: Cyclin-dependent kinase assay, cdk2/cyclin E; conditions: CDK2 IC50, nM, GST-pRb substrate, 10 µM ATP
cdk4/cyclin D1 = cdk4/cyclin D1 (Homo sapiens, UniProt P11802); test: Cyclin-dependent kinase assay, cdk4/cyclin D1; assay type: biochemical; conditions: cyclin D1/cdk4; GST-pRb substrate, 10 µM ATP
NCI-H460 = test: In vitro proliferation assay (MTT), NCI-H460; assay type: cell-based; conditions: Homo sapiens, NCI-H460; MTT assay; value (SD, n) where given; read-out: H-460 Lung (IC50 µM)
Method in brief: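 Tetrazolium (MTT) proliferation test following a 3-day treatment with compound. Read-out is optical density at 570 nm after DMSO solubilization.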

HL-60 = test: In vitro proliferation assay (MTT), HL-60; assay type: cell-based; conditions: Homo sapiens, HL-60; MTT assay; value (SD, n) where given; read-out: HL-60 Leuk. (IC50 µM)
Method: as §1, §2, §3

PC-3 = test: In vitro proliferation assay (MTT), PC-3; assay type: cell-based, human; conditions: Homo sapiens, PC-3, MTT assay; value (SD, n) where given; read-out: PC-3 Prostate (IC50 µM)
Method in brief: (§4)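 IC50 values come from absorbance at 570 nm after MTT staining of cells grown with compound for 3 days. Seeding density was 1000 to 2500 cells/well, depending on the line.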

MDA-MB-435 = test: In vitro proliferation assay (MTT), MDA-MB-435; assay type: cell-based, human; conditions: Homo sapiens, MDA-MB-435, MTT assay; value (SD, n) where given; read-out: MB-435 Breast (IC50 µM)
Method in brief: as §4

Colo-205 = test: In vitro proliferation assay (MTT), Colo-205; assay type: cell-based; conditions: Homo sapiens, COLO 205; MTT assay; value (SD, n) where given; read-out: Colo-205 Colon (IC50 µM)
Method in brief: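 Colo-205 cells were seeded at 1000–2500 cells/well and allowed to attach overnight, then exposed to compound for 3 days. Viable cells were measured by MTT reduction (2–4 h, 37 °C), with DMSO-solubilised dye read at 570 nm. IC50 was derived from concentration–response data.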

cdk4/cyclin D1, sequence (P11802 whole entry): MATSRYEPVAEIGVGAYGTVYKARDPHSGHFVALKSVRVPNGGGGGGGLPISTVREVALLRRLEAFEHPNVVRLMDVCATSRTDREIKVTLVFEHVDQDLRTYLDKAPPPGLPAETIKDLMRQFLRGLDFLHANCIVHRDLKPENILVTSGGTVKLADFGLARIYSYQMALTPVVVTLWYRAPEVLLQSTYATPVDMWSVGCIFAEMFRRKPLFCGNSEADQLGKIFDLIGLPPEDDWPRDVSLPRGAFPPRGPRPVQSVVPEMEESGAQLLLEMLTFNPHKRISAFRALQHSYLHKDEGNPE
cdk4/cyclin D1, sequence (P24385 whole entry partner): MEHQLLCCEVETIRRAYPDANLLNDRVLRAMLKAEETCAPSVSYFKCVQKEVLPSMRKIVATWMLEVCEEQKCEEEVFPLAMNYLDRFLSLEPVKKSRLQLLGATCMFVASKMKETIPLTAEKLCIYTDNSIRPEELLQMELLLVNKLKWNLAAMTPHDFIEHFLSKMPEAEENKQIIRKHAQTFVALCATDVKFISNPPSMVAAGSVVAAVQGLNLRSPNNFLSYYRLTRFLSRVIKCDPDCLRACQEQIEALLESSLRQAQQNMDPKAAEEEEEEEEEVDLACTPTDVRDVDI
cdk1/cyclin B, sequence (P06493 whole entry): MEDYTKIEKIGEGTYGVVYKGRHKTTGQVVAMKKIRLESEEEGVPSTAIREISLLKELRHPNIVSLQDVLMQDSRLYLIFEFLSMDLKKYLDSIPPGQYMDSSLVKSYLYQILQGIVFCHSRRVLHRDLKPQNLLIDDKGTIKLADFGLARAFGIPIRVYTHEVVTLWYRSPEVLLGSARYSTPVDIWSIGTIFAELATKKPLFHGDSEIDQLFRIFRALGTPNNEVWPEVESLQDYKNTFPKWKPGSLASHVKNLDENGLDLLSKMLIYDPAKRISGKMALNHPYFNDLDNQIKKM
cdk1/cyclin B, sequence (P14635 whole entry partner): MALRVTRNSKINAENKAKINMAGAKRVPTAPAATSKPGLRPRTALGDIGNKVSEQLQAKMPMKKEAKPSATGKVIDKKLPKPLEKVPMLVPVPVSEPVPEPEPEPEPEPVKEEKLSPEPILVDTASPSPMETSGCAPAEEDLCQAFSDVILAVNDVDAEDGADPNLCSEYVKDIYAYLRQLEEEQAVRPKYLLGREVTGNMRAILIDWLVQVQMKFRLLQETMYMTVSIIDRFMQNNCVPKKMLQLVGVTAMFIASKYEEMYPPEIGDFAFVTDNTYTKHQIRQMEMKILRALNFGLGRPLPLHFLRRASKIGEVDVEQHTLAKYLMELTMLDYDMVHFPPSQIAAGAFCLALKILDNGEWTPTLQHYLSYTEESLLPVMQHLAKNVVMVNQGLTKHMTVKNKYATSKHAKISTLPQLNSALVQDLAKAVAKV

SMILES	IC50 (cdk1/cyclin B)	IC50 (Jurkat)	IC50 (cdk2/cyclin E)	pIC50 (cdk4/cyclin D1)	IC50 (NCI-H460)	IC50 (HL-60)	IC50 (PC-3)	IC50 (MDA-MB-435)	IC50 (Colo-205)
N[C@H]1CC[C@H](Nc2nc(NC3CCN(S(=O)(=O)c4ccc(C(F)(F)F)cc4[N+](=O)[O-])CC3)c3ncn(C4CCCC4)c3n2)CC1 [compound 132, trans-N^2-(4-Amino-cyclohexyl)-9-cyclopentyl-N^6-[1-(2-nitro-4-trifluoromethyl-benzenesulfonyl)-piperidin-4-yl]-9H-purine-2,6-diamine dihydrochloride]	74 nM	0.21 µM	35 nM	6.23	0.12 µM	< 0.02 µM	0.15 µM	0.21 µM	0.04 µM
N[C@H]1CC[C@H](Nc2nc(NC3CCN(S(=O)(=O)c4cccc5cccnc45)CC3)c3ncn(C4CCCC4)c3n2)CC1 [compound 144, trans-N^2-(4-Amino-cyclohexyl)-9-cyclopentyl-N^6-[1-(quinoline-8-sulfonyl)-piperidin-4-yl]-9H-purine-2,6-diamine dihydrochloride]	2 nM	0.25 µM	2 nM	7.12	0.33 µM	0.12 µM	0.18 µM	0.16 µM	0.05 µM
N[C@H]1CC[C@H](Nc2nc(NC3CCN(C(=O)Nc4ccccc4)CC3)c3ncn(C4CCCC4)c3n2)CC1 [compound 146, trans-4-[2-(4-Amino-cyclohexylamino)-9-cyclopentyl-9H-purin-6-ylamino]-piperidine-1-carboxylic acid phenylamide dihydrochloride]	18 nM	0.32 µM	42 nM	6.70	0.42 µM	0.04 µM	0.34 µM	0.35 µM	< 0.02 µM
N[C@H]1CC[C@H](Nc2nc(NC3CCN(C(=O)Nc4ccc(Cl)cc4)CC3)c3ncn(C4CCCC4)c3n2)CC1 [compound 150, trans-4-[2-(4-Amino-cyclohexylamino)-9-cyclopentyl-9H-purin-6-ylamino]-piperidine-1-carboxylic acid (4-chloro-phenyl)-amide dihydrochloride]	26 nM	0.24 µM	55 nM	7.04	0.19 µM	< 0.02 µM	0.25 µM	0.2 µM	0.02 µM
N[C@H]1CC[C@H](Nc2nc(NC3CCN(C(=O)Nc4cccc(C(F)(F)F)c4)CC3)c3ncn(C4CCCC4)c3n2)CC1 [compound 159, trans-4-[2-(4-Amino-cyclohexylamino)-9-cyclopentyl-9H-purin-6-ylamino]-piperidine-1-carboxylic acid (3-trifluoromethyl-phenyl)-amide dihydrochloride]	4 nM	0.41 µM	16 nM	6.15	0.4 µM	0.07 µM	0.33 µM	0.2 µM	0.02 µM
N[C@H]1CC[C@H](Nc2nc(NC3CCN(C(=O)Nc4ccc(Br)cc4)CC3)c3ncn(C4CCCC4)c3n2)CC1 [compound 162, trans-4-[2-(4-Amino-cyclohexylamino)-9-cyclopentyl-9H-purin-6-ylamino]-piperidine-1-carboxylic acid (4-bromo-phenyl)-amide dihydrochloride]	15 nM	0.19 µM	72 nM	6.22	0.18 µM	< 0.02 µM	0.12 µM	0.14 µM	0.04 µM
CCOc1ccccc1NC(=O)N1CCC(Nc2nc(N[C@H]3CC[C@H](N)CC3)nc3c2ncn3C2CCCC2)CC1 [compound 171, trans-4-[2-(4-Amino-cyclohexylamino)-9-cyclopentyl-9H-purin-6-ylamino]-piperidine-1-carboxylic acid (2-ethoxy-phenyl)-amide dihydrochloride]	51 nM	0.31 µM	89 nM	6.02	0.23 µM	0.05 µM	0.23 µM	0.25 µM	0.14 µM

More lines, in order of falling IC50 (cdk1/cyclin B), values ahead:

IC50 (cdk1/cyclin B)	IC50 (Jurkat)	IC50 (cdk2/cyclin E)	pIC50 (cdk4/cyclin D1)	IC50 (NCI-H460)	IC50 (HL-60)	IC50 (PC-3)	IC50 (MDA-MB-435)	IC50 (Colo-205)	SMILES
38 nM	0.51 µM	46 nM	6.59	0.56 µM	0.03 µM	0.36 µM	0.33 µM	< 0.02 µM	N[C@H]1CC[C@H](Nc2nc(NC3CCN(C(=O)Nc4ccc(F)cc4)CC3)c3ncn(C4CCCC4)c3n2)CC1 [compound 147, trans-4-[2-(4-Amino-cyclohexylamino)-9-cyclopentyl-9H-purin-6-ylamino]-piperidine-1-carboxylic acid (4-fluoro-phenyl)-amide dihydrochloride]
37 nM	0.28 µM	57 nM	6.07	0.21 µM	0.05 µM	0.21 µM	0.17 µM	0.19 µM	COc1ccccc1NC(=O)N1CCC(Nc2nc(N[C@H]3CC[C@H](N)CC3)nc3c2ncn3C2CCCC2)CC1 [compound 163, trans-4-[2-(4-Amino-cyclohexylamino)-9-cyclopentyl-9H-purin-6-ylamino]-piperidine-1-carboxylic acid (2-methoxy-phenyl)-amide dihydrochloride]
28 nM	0.21 µM	45 nM	6.89	0.15 µM	0.04 µM	0.15 µM	0.11 µM	0.09 µM	N[C@H]1CC[C@H](Nc2nc(NC3CCN(C(=O)Nc4ccccc4Cl)CC3)c3ncn(C4CCCC4)c3n2)CC1 [compound 169, trans-4-[2-(4-Amino-cyclohexylamino)-9-cyclopentyl-9H-purin-6-ylamino]-piperidine-1-carboxylic acid (2-chloro-phenyl)-amide dihydrochloride]
12 nM	0.16 µM	114 nM	6.17	0.23 µM	0.04 µM	0.2 µM	0.12 µM	0.05 µM	N[C@H]1CC[C@H](Nc2nc(NC3CCN(C(=O)Nc4ccc(OC(F)(F)F)cc4)CC3)c3ncn(C4CCCC4)c3n2)CC1 [compound 175, trans-4-[2-(4-Amino-cyclohexylamino)-9-cyclopentyl-9H-purin-6-ylamino]-piperidine-1-carboxylic acid (4-trifluoromethoxy-phenyl)-amide dihydrochloride]
11 nM	0.22 µM	21 nM	6.15	0.2 µM	< 0.02 µM	0.13 µM	0.08 µM	0.02 µM	N[C@H]1CC[C@H](Nc2nc(NC3CCN(C(=O)Nc4cccc(Cl)c4)CC3)c3ncn(C4CCCC4)c3n2)CC1 [compound 165, trans-4-[2-(4-Amino-cyclohexylamino)-9-cyclopentyl-9H-purin-6-ylamino]-piperidine-1-carboxylic acid (3-chloro-phenyl)-amide dihydrochloride]
3 nM	0.24 µM	51 nM	6.81	0.3 µM	< 0.02 µM	0.26 µM	0.19 µM	< 0.02 µM	N[C@H]1CC[C@H](Nc2nc(NC3CCN(C(=O)Nc4cccc(Br)c4)CC3)c3ncn(C4CCCC4)c3n2)CC1 [compound 170, trans-4-[2-(4-Amino-cyclohexylamino)-9-cyclopentyl-9H-purin-6-ylamino]-piperidine-1-carboxylic acid (3-bromo-phenyl)-amide dihydrochloride]
